The test system of the data set is Homo sapiens. Put plainly: Evaluation of pharmacokinetic parameters for Rifampin in serum following single oral administration of 10 mg/kg Rifampin to pediatric patients. The class given is ADME, organism-based. More on the design: dose 600 mg, dose 10 mg/kg, route oral. The settings on record: in vivo, dosed compound id 35, dosed compound name RIFAMPICIN, gender male and female, regimen Single dose, tissue Serum.

We go through one molecule from ChEMBL document CHEMBL3832057.

By Tmax is commonly meant the time at which the peak concentration occurs. `CO[C@H]1/C=C/O[C@@]2(C)Oc3c(C)c(O)c4c(O)c(c(/C=N/N5CCN(C)CC5)c(O)c4c3C2=O)NC(=O)/C(C)=C\C=C\[C@H](C)[C@H](O)[C@@H](C)[C@@H](O)[C@@H](C)[C@H](OC(C)=O)[C@@H]1C` [RIFAMPIN]: the time of peak concentration (Tmax) is 1 h.
